Measured values taken from patent US10093656B2, “Fused-ring or tricyclic aryl pyrimidine compound used as kinase inhibitor” (NANJING SANHOME PHARMACEUTICAL CO., LTD, priority 2015, dated 2018).

Experiments:
[1] = biological target: T1, INSR (Homo sapiens, UniProt P06213); test: INSR enzyme HTRF inhibition assay; assay type: biochemical; details: 35 μM ATP, read-out: INSR_IC50
T1 construct: purchased Life technology (Madison, Wis.)
Description: (§1) Enzyme: EGFR wild type, EGFR T790M/L858R, EGFR T790M and INSR were purchased from Life technology (Madison, Wis.), EGFR d746-750/T790M was purchased from Carna Biosciences (Japan).
(§2) HTRF Kit was purchased from Cis-Bio International which contained the Eu-labeled TK1 antibody, XL665 and biotin-labeled TK1 polypeptide substrates.
(§3) Detecting instrument: Envision (PerkinElmer).
(§4) The test compound was diluted 3-fold to obtain 10 doses of which the final concentration was from 300 nM to 0.015 nM.
INSR Enzyme Reaction Mixture System:
0.5 nM INSR, 1 μM biotin-TK1 peptide, 35 μM ATP enzyme buffer, a total of which was 10 μL. The reaction plate was white Proxiplate 384-Plus plate (PerkinElmer) and the mixture was reacted at 23° C. for 60 minutes.
(§5) Reaction Detection: 10 μL of detection reagent containing Antibody 2 nM and XL665 62.5 nM was added, and the reagent was incubated at 23° C. for 60 minutes. The plates were read by Envision.
(§6) The reading is converted to the suppression rate (%) by the following formula […]/(Max-Min)*100%. IC50 Data was measured by four-parameter curve fitting (Model 205 in XLFITS, IDBS).

[2] = test system: NCI-H1975 cells EGFR L858R/T790M; test: NCI-H1975 cell viability assay (Cell Titer-Glo, 6 days); assay type: cell-based; details: Homo sapiens, 144 h
Description: (§7) RPMI1640, fetal bovine serum, penicillin/streptomycin solution were purchased from Life Technology (Madison, Wis.). Cell Titer-Glo luminescent cell viability reagents were purchased from Promega (Madison, Wis.). A431 cell line and NCI-H1975 cell line were purchased from European Collection of Cell Cultures (ECACC). Plate Reader Instrument: Envision (PerkinElmer).
(§8) 384-Well plates, 300 of A431 cells and NCI-H1975 cells were inoculated per well, a volume of which was 45 μL. And the plates were incubated overnight in a CO2 incubator at 37° C. The test compound was diluted 3-fold to obtain 10 dose concentrations, the final concentrations of which were from 10 μM to 0.508 nM, two wells. The middle plates were filled with 49 μL of medium per well. 1 μL of compound in the gradient dilution compound plates was transferred to the middle plates and mixed well. And then 5 μL liquid in the middle plates was taken to the cell plates. The cells were incubated in a CO2 incubator for 6 days. After 6 days, 25 μL of detection reagents was added. And then the mixture was incubated at room temperature for 10 minutes and the plates were read by Envision.
(§9) The reading is converted to the suppression rate by the following formula (%) (Max-Sample)/(Max-Min)*100%. IC50 Data was measured by Four-parameter curve fitting (Model 205 in XLFIT5, IDBS).

[3] = biological target: T2, EGFR T790M/L858R (Homo sapiens, UniProt P00533, L858R/T790M); test: EGFR T790M/L858R enzyme HTRF inhibition assay; assay type: biochemical; details: 20 μM ATP, read-out: EGFR L858R/T79M IC50
T2 construct: purchased Life technology (Madison, Wis.)
Description: as §1, §2, §3, §4
EGFR T790M/L858R Enzyme Reaction Mixture System:
0.04 nM EGFR T790M/L858R, 1 μM biotin-TK1 peptide, 20 μM ATP enzyme buffer, a total of which was 10 μL. The reaction plate was white Proxiplate 384-Plus plate (PerkinElmer) and the mixture was reacted at 23° C. for 60 minutes.
as §5, §6

[4] = biological target: T3, EGFR wild type (Homo sapiens, UniProt P00533); test: Wild-type EGFR enzyme HTRF inhibition assay; assay type: biochemical; details: 25 μM ATP, read-out: EGFR WT IC50
T3 construct: purchased Life technology (Madison, Wis.)
Description: as §1, §2, §3, §4
Wild-Type EGFR Enzyme Reaction Mixture System:
0.05 nM Wild-type EGFR, 1 μM biotin-TK1 peptide, 25 μM ATP enzyme buffer, a total of which was 10 μL. The reaction plate was white Proxiplate 384-Plus plate (PerkinElmer) and the mixture was reacted at 23° C. for 60 minutes.
as §5, §6

[5] = test system: A431 cells EGFR WT; test: A431 cell viability assay (Cell Titer-Glo, 6 days); assay type: cell-based, human; details: for IC50: Homo sapiens, A-431, 144 h, A431 cells, 6 days; for A431:NCI-H1975 (ratio): ratio of cell IC50 A431 to NCI-H1975
Description: as §7, §8, §9

[6] = biological target: T4, EGFR d746-750/T790M (Homo sapiens, UniProt P00533, DEL746-750/T790M); test: EGFR d746-750/T790M enzyme HTRF inhibition assay; assay type: biochemical; details: 40 μM ATP
T4 construct: purchased Carna Biosciences (Japan)
Description: as §1, §2, §3, §4
EGFR d746-750/T790M Enzyme Reaction Mixture System:
0.025 nM EGFR d746-750/T790M, 1 μM biotin-TK1 peptide, 40 μM ATP enzyme buffer, a total of which was 10 μL. The reaction plate was white Proxiplate 384-Plus plate (PerkinElmer) and the mixture was reacted at 23° C. for 60 minutes.
as §5, §6

[7] = test system: human skin squamous cell A431 xenograft (CDX); test: Selectivity study in vivo, A431 xenograft (CDX) model; parameters: species or system BALB/c nude mice; details: Table 5 experiment, AZD9291 5 mg/kg; for Tumor Volume (mm^3) 4 days: day 4, oral once daily: 33, 34, 40, 42, 43 20 mg/kg; for Tumor Volume (mm^3) 11 days: day 11, oral once daily: 33, 34, 40, 42, 43 20 mg/kg; for Tumor Volume (mm^3) 18 days: day 18, oral once daily: 33, 34, 40, 42, 43 20 mg/kg
Description: In this model, the less inhibitory effect on the tumor, the better the selectivity in vivo.
The selective experiments in vivo were performed on BALB/c nude mice that subcutaneously implanted human skin squamous cell A431 xenograft (CDX).
BALB/c nude mice, female, 6-8 weeks, weighted about 18-20 grams, the mice were kept in a special pathogen-free environment and in a single ventilation cage (5 mice per cage). The bedding and water of all the cages were disinfected before use. All animals were free to obtain standard certified commercial laboratory diets. All mice were purchased from mice of Shanghai BK Laboratory Animal Co., LTD for research. The tumor tissue (20-30 mm^3) was implanted subcutaneously in the […] of each mouse for tumor growth. The experiment was started when the average tumor volume reached about 150-200 mm^3. The test compound was orally administered (compounds 17, 30, 37 and 38 were administered once daily at 20 mg/kg, the compound AZD9291 was administered once daily at 5 mg/kg, the compound CO-1686 was administered twice daily at 50 mg/kg, the compound Erlotinib was administered once daily at 75 mg/kg and the compound Afatinib was administered once daily at 7.5 mg/kg, 21 days of continuous administration. The data were shown in Table 4; compounds 33, 34, 40, 42 and 43 were administered once daily at 20 mg/kg and compound AZD9291 was administered once daily at5 mg/kg, 21 days of continuous administration. The tumor volume was measured twice a week with a two-dimensional caliper and the volume was measured in cubic millimeters and calculated by the following formula: V=V=0.5 a×b2, where a and b were the major and minor diameters of the tumor, respectively.

[8] = test system: NCI-H1975 lung cancer patient-derived xenograft (CDX); test: Pharmacodynamics study in vivo, NCI-H1975 xenograft (CDX) model; parameters: species or system BALB/c nude mice; details: AZD9291 5 mg/kg; for Tumor Volume (mm^3) 4 days: day 4, oral daily: compound 30 10 mg/kg, 33, 34, 40, 42, 43 20 mg/kg; for Tumor Volume (mm^3) 7 days: day 7, oral daily: compound 30 10 mg/kg, 33, 34, 40, 42, 43 20 mg/kg; for Tumor Volume (mm^3) 11 days: day 11, oral daily: compound 30 10 mg/kg, 33, 34, 40, 42, 43 20 mg/kg; for Tumor Volume (mm^3) 14 days: day 14, oral daily: compound 30 10 mg/kg, 33, 34, 40, 42, 43 20 mg/kg; for Tumor Volume (mm^3) 18 days: day 18, oral daily: compound 30 10 mg/kg, 33, 34, 40, 42, 43 20 mg/kg
Description: For example, after 21 days of administration, the tumor volume of the representative compounds 30, 33, 34, 40, 42 and 43 decreased from the beginning of about 149 mm^3 to 3-39 mm^3.
The pharmacological experiments in vivo were performed on BALB/c nude mice that subcutaneously implanted NCI-H1975 lung cancer […] xenograft (CDX).
BALB/c nude mice, female, 6-8 weeks, weighted about 18-22 grams, the mice were kept in a special pathogen-free environment, and in a single ventilation cage (5 mice per cage). The bedding and water of all the cages were disinfected before use. All animals were free to obtain standard certified commercial laboratory diets. A total of 100 mice were purchased from Beijing Vital for research. The tumor tissue (20-30 mm^3) was implanted subcutaneously in the […] of each mouse for tumor growth. The experiment was started when the average tumor volume reached about 150-200 mm^3. The test compound was orally administered daily (compound 30 was administered at 10 mg/kg, compound 33, 34, 40, 42 and 43 were administered at 20 mg/kg and compound AZD9291 was administered continuously for 21 days at 5 mg/kg, the data were shown in Table 3). The tumor volume was measured twice a week with a two-dimensional caliper and the volume was measured in cubic millimeters and calculated by the following formula: V=V=0.5 a×b2, where a and b were the major and minor diameters of the tumor, respectively.

T3 sequence (P00533 25-1210): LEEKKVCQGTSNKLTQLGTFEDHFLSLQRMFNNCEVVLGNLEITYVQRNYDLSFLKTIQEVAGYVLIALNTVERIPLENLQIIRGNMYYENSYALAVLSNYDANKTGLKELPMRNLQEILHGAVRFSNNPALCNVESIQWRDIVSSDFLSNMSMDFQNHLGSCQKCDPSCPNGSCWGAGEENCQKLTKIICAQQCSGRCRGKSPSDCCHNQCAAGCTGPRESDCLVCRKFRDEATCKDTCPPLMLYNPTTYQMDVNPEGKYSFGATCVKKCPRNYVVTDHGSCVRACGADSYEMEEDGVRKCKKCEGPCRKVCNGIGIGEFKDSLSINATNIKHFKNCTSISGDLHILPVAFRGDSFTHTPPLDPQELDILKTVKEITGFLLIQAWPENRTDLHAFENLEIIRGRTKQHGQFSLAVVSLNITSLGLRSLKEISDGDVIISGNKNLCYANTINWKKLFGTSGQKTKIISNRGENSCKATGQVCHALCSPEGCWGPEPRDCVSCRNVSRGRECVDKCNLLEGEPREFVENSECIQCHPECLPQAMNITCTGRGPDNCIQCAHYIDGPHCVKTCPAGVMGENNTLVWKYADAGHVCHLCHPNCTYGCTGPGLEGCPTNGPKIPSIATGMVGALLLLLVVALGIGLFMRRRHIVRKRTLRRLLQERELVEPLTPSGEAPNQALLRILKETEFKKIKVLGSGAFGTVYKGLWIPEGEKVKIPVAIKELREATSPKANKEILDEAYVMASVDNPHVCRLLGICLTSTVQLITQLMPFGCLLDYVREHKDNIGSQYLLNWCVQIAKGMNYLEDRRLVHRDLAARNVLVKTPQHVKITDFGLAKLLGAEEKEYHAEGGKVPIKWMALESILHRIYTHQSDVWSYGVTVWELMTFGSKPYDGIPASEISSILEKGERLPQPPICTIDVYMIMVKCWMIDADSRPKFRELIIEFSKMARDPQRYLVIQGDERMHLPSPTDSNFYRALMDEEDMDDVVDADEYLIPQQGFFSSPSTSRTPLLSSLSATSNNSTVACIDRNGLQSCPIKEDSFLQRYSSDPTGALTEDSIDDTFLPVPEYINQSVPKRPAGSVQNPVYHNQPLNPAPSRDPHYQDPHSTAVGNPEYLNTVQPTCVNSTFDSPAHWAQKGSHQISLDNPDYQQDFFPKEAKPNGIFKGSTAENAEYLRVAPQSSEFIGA
T2 sequence (P00533 25-1210 T790M/L858R): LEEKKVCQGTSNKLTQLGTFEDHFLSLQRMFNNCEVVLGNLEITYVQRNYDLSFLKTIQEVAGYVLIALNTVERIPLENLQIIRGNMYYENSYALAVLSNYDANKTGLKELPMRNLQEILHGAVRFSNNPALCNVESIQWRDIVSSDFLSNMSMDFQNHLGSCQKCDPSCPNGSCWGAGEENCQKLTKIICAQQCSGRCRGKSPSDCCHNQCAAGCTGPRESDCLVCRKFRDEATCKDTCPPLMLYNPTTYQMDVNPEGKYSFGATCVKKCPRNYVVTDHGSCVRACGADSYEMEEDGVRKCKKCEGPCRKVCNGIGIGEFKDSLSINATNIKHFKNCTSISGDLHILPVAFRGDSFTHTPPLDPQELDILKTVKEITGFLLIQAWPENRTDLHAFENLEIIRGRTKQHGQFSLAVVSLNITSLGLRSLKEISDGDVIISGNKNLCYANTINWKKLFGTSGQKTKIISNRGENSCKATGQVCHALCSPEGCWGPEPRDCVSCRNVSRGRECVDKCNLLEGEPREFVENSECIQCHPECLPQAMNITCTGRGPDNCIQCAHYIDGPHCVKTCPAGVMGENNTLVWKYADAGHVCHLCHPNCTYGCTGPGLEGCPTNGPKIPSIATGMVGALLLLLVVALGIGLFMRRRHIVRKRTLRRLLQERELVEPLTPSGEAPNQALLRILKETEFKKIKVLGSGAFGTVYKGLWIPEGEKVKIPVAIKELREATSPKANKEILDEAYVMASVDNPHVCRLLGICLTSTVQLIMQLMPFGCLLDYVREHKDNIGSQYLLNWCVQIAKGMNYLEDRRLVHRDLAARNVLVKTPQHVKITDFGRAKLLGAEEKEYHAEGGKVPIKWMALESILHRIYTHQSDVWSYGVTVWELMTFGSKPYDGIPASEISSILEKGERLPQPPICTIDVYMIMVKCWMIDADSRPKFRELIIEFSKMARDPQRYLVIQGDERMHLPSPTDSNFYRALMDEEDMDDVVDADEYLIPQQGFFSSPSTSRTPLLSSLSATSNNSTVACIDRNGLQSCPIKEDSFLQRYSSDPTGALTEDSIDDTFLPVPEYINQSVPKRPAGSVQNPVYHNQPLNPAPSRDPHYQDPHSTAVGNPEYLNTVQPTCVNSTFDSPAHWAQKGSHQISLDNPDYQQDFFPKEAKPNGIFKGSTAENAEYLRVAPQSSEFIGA
T4 sequence (P00533 with tags, fused parts or gaps DEL746-750/T790M limits assumed): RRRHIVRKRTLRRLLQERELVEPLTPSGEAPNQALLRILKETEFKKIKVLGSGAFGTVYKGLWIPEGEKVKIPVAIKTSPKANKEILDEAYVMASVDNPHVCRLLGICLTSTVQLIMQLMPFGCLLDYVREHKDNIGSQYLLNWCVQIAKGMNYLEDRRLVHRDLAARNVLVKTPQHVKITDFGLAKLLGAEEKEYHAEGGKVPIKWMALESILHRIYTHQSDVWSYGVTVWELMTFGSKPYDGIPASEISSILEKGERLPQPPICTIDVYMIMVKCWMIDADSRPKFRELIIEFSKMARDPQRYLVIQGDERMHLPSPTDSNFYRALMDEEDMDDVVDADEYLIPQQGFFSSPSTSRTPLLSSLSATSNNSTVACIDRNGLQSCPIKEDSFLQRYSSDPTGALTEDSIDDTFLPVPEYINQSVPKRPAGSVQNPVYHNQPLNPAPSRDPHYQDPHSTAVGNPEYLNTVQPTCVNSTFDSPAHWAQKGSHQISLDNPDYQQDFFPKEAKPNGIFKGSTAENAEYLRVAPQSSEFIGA
T1 sequence (P06213 28-1382): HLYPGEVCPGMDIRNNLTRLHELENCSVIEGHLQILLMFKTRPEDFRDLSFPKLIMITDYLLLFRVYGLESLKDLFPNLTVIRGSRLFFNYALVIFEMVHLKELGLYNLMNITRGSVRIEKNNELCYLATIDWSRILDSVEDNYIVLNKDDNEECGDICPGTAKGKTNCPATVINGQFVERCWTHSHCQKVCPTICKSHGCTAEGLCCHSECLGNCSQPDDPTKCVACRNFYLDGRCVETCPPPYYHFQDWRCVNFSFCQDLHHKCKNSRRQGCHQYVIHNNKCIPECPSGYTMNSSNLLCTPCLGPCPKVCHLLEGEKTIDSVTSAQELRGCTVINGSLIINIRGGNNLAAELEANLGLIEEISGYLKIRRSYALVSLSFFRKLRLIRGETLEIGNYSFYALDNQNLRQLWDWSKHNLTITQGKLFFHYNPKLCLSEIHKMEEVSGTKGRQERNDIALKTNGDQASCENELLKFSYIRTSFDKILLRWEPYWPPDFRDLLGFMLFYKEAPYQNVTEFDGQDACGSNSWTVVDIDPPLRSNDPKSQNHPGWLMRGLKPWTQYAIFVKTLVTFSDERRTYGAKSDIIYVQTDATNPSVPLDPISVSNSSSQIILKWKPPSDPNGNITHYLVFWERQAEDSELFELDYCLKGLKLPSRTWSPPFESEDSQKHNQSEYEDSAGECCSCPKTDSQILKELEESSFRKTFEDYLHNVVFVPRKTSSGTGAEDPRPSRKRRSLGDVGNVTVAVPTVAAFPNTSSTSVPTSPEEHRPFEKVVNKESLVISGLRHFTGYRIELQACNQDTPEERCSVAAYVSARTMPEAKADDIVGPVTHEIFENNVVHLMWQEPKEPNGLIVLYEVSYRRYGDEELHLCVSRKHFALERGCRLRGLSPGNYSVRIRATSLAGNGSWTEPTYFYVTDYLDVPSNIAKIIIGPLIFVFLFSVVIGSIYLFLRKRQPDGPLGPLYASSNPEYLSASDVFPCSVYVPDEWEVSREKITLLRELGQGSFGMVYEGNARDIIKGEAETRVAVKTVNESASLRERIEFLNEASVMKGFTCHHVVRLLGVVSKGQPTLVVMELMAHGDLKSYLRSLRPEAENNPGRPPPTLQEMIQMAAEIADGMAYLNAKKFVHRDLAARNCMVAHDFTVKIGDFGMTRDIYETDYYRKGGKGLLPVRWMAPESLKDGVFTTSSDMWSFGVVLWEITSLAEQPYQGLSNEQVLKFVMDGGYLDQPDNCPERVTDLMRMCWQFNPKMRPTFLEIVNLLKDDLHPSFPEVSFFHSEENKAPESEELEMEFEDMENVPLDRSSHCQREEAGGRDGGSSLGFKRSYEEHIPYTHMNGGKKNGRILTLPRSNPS

SMILES | IC50 [1] | IC50 [2] | IC50 [3] | IC50 [4] | IC50 [5] | A431:NCI-H1975 (ratio) [5] | IC50 [6] | Tumor Volume (mm^3) 4 days [7] | Tumor Volume (mm^3) 11 days [7] | Tumor Volume (mm^3) 18 days [7] | Tumor Volume (mm^3) 4 days [8] | Tumor Volume (mm^3) 7 days [8] | Tumor Volume (mm^3) 11 days [8] | Tumor Volume (mm^3) 14 days [8] | Tumor Volume (mm^3) 18 days [8]
C=CC(=O)Nc1cc(Nc2nccc(-c3c4n(c5ccccc35)CCC4)n2)c(OC)cc1N(C)CCN(C)C [Embodiment 1] | 404 nM | 10.4 nM | 0.32 nM | 1.49 nM | 714 nM | 71.4 | 0.39 nM | – | – | – | – | – | – | – | –
C=CC(=O)Nc1cc(Nc2ncc(F)c(-c3c4n(c5cc(Cl)ccc35)CCOC4)n2)c(OC)cc1N(C)CCN(C)C [Embodiment 34, N-(5-((4-(7-Chloro-3,4-dihydro-1H-[1,4]oxazino[4,3-a]indol-10-yl)-5-fluoropyrimidin-2-yl)amino)-2-((2-(dimethylamino)ethyl)(methyl)amino)-4-methoxyphenyl)acrylamide] | – | 68 nM | 0.8 nM | 2 nM | 2100 nM | 31 | 0.6 nM | 237 mm^3 | 646 mm^3 | 1357 mm^3 | 102 mm^3 | 80 mm^3 | 70 mm^3 | 59 mm^3 | 35 mm^3
C=CC(=O)Nc1cc(Nc2nccc(-c3cn4c5c(cccc35)OCCC4)n2)c(OC)cc1N(C)CCN(C)C [Embodiment 40, N-(5-((4-(3,4-Dihydro-2H-[1,4]oxazepino[2,3,4-hi]indol-7-yl)pyrimidin-2-yl)amino)-2-((2-(dimethylamino)ethyl)(methyl)amino)-4-methoxyphenyl)acrylamide] | – | 23 nM | 0.3 nM | 0.8 nM | 279 nM | 12 | 0.4 nM | 212 mm^3 | 445 mm^3 | 895 mm^3 | 108 mm^3 | 85 mm^3 | 91 mm^3 | 91 mm^3 | 84 mm^3
C=CC(=O)Nc1cc(Nc2nccc(-c3cn4c5c(cccc35)OC3(CC3)C4)n2)c(OC)cc1N(C)CCN(C)C [Embodiment 42, N-(5-((4-(3H-Spiro[[1,4]oxazino[2,3,4-hi]indole-2,1′-cyclopropan]-6-yl)pyrimidin-2-yl)amino)-2-((2-(dimethylamino)ethyl)(methyl)amino)-4-methoxyphenyl)acrylamide] | – | 177 nM | 0.2 nM | 0.8 nM | 846 nM | 4.8 | 0.2 nM | 226 mm^3 | 424 mm^3 | 661 mm^3 | 85 mm^3 | 69 mm^3 | 57 mm^3 | 47 mm^3 | 20 mm^3
C=CC(=O)Nc1cc(Nc2nccc(-c3cn4c5c(cccc35)OC3(CC3)C4)n2)c(OC)cc1N(C)CC(C)(C)N(C)C [Embodiment 43, N-(5-((4-(3H-Spiro[[1,4]oxazino[2,3,4-hi]indole-2,1′-cyclopropan]-6-yl)pyrimidin-2-yl)amino)-2-((2-(dimethylamino)-2-methylpropyl)(methyl)amino)-4-methoxyphenyl)acrylamide] | – | 264 nM | – | – | 548 nM | 2.1 | – | 238 mm^3 | 516 mm^3 | 820 mm^3 | 92 mm^3 | 65 mm^3 | 61 mm^3 | 45 mm^3 | 23 mm^3
